Data as given in patent US7244730B2, “2-iminopyrrolidine derivatives” (Eisai Co., Ltd, priority 2001, dated 2007).
Where a name gives a salt, the structure may show the parent alone. Read-outs that look alike come from different tables or passages of the source.

What was measured:
thrombin receptor = target: T1, thrombin receptor (Homo sapiens, UniProt P25116); assay: Receptor binding assay ([3H] high affinity TRAP, platelet membrane)
T1 construct: centrifuged at 40,000 g for 60 minutes to yield platelet membrane; from tissue; host or cells: platelet membrane prepared from donor blood (platelet rich plasma)
T1 sequence (P25116 22-425): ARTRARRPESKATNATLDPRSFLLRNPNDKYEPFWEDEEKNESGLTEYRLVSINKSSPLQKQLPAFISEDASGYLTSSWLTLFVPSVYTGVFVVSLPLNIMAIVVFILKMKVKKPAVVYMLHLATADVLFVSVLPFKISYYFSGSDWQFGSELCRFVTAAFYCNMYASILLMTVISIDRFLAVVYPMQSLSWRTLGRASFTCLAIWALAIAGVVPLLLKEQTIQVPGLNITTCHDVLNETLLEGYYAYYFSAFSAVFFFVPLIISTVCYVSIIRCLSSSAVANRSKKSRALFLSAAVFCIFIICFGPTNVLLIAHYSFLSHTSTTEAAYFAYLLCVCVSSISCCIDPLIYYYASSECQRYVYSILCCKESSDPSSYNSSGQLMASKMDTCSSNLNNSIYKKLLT
Description: Blood was sampled from a healthy adult who had taken no drugs for one week, and 3.8% citric acid (a ratio of 1:9 with respect to the blood) was added as an anticoagulant. The mixture was then centrifuged at 100 g for 10 minutes at room temperature to yield platelet rich plasma (PRP). The platelet precipitate obtained by centrifuging the PRP was homogenized with a Dounce homogenizer, and then centrifuged at 40,000 g for 60 minutes to yield platelet membrane. The platelet membrane was suspended in a solution prepared by adding DMSO (dimethyl sulfoxide) at 1% concentration to Buffer 1: a 50 mM Tris-HCl buffer containing 10 mM MgCl2 and 1 mM EGTA (ethylene glycol tetraacetic acid), and the suspension was stored at −80° C. Bovine albumin and DMSO were added to Buffer 1 at 0.1% and 20%, respectively, to make preparation solutions for the test compound. The test compounds (20 μl) diluted at various concentrations with the preparation solutions were added to a 96-well multiscreen plate. […] After then adding 100 μl of the previously prepared platelet membrane suspension (0.4 mg/ml) and mixing, incubation was performed at 37° C. for 1 hour. The reaction mixture was suction filtered and then rinsed 3 times with 200 μl of Buffer 1. Next, 30 μl of liquid scintillator was added for measurement of the radioactivity of the plate using a Top Counter (Packard), the value of the radioactivity in the presence of the test compound minus non-specific binding portion was divided by the specific binding value (the value of the binding in the absence of the compound minus the non-specific binding portion) to determine the binding ratio, from which the IC50 value was calculated. The non-specific binding was the value obtained with addition of 10 μM of high affinity TRAP.

[1] = system: platelet rich plasma (PRP), thrombin-induced platelet aggregation; assay: Inhibitory effects on platelet aggregation using platelet rich plasma; assay type: cell-based; conditions: Homo sapiens, 0.1 h, read-out: Thr IC50
Description: [Inhibitory Effects on Platelet Aggregation Using Platelet Rich Plasma]
Blood was sampled from a healthy adult who had taken no drugs for one week, and 3.8% citric acid (a ratio of 1:9 with respect to the blood) was added as an anticoagulant. The mixture was then centrifuged at 100 g for 10 minutes at room temperature to yield platelet rich plasma (PRP). The PRP-removed blood was further centrifuged at 1000 g for 10 minutes to yield platelet poor plasma (PPP). The number of platelet was counted using a multi-parameter automatic hemocyte counter (K4500, Sysmex), and the PRP was diluted to approximately 300,000/μl with the PPP. The platelet aggregation activity was determined in the following manner using an Aggregometer (MC Medical). GPRP-NH2 (final concentration 1 mM, 25 μl) was added as a fibrin polymerization inhibitor to the PRP (175 μl), after which Ca-free Tyrode solution (control) or the test compound suspension (25 μl) at different concentrations was added, incubation was performed at 37° C. for 3 minutes and then 25 μl of thrombin at the minimum concentration required to produce maximum aggregation (final concentration: optimum concentration among 0.5–1.5 units/ml) was added, for initiation of platelet aggregation. PRP and Ca-free Tyrode solution (control) or the preparation solutions at various concentrations were pre-incubated at 37° C. for 60 minutes, prior to the platelet aggregation reaction in some experiments. After addition of thrombin, the aggregation reaction was examined for 6 minutes and the areas under the aggregation curves were compared to determine the inhibition ratio, from which the IC50 value was calculated.

[2] = system: Vascular smooth muscle cells (rSMC); assay: Rat smooth muscle cell proliferation assay; assay type: cell-based; conditions: 48 h; male SD rat aorta rSMC; thrombin 0.1 unit/ml; 2 days; MTT, OD 590 nm; read-out: Rat SMC IC50
Description: [Rat Smooth Muscle Cell Proliferation Assay]
Vascular smooth muscle cells (rSMC) were isolated from male SD rat aorta by the explant method. DMEM medium (Sigma) containing 10% fetal bovine serum (GibcoBRL), streptomycin and penicillin was used as the proliferation medium, and subculture was carried out at 37° C. in the presence of 5% CO2. Culture was initiated after adding 100 μl of rSMC suspension in proliferation medium at a concentration of 1×10^4 cells/ml, to a 96-well plate. After 3 days, cells were rinsed twice with 100 μl of DMEM medium, the medium was exchanged with 100 μl of DMEM medium containing 0.1% albumin (starvation medium), and serum starvation was initiated. The medium was exchanged two days after the serum starvation, 80 μl of starvation medium and 10 μl of the test compound diluted to different concentrations with the starvation medium were added, and then 10 μl of thrombin dissolved in the starvation medium (final concentration: 0.1 unit/ml) was added prior to further incubation for 2 days.
Upon adding 20 μl of MTT (3-[4,5-dimethylthiazol-2-yl]-2,5-diphenyltetrazolium bromide) dissolved in DPBS to 7.5 mg/ml, incubation was continued for 4 hours. The medium was removed by suction, 50 μl of a 10% SDS/0.029% ammonia solution was added, and the mixture was allowed to stand for 2 hours in a CO2 incubator for complete lysis of the cells. As an index of cell proliferation, the OD 590 nm was measured using a plate reader (EL340, BIO-TEK Instruments Inc.), and the control OD value (OD value in the absence of the test compound) minus the OD value in the presence of the test compound was divided by the control OD value minus the blank OD value (OD value without thrombin stimulation) to determine the inhibition ratio, from which the IC50 value was calculated.

[3] = platelet membrane of healthy adult, 25 nM [3H] high affinity TRAP, 37° C., 1 hour, read-out: RBA IC50
[4] = PRP of healthy adult, aggregation initiated with thrombin (0.5–1.5 units/ml), area under aggregation curve, 6 minutes

Compound	IC50 (thrombin receptor; [3]) [nM]	IC50 [1, 4] [nM]	IC50 [2] [nM]	IC50 (thrombin receptor) [nM]	IC50 [1] [nM]
CCOc1cc2c(c(F)c1OCC)C(=N)N(CC(=O)c1cc(NC(C)C)c(OC)c(C(C)(C)C)c1)C2 [Example 26, 1-(3-tert-Butyl-5-isopropylamino-4-methoxy-phenyl)-2-(5,6-diethoxy-7-fluoro-1-imino-1,3-dihydro-isoindol-2-yl)-ethanone hydrobromide]	17	79	62	–	–
CCOc1cc(C(=O)CN2Cc3cc(OCC)c(OCC)c(F)c3C2=N)cc(C(C)(C)C)c1OC [Example 28, 1-(3-tert-Butyl-5-ethoxy-4-methoxy-phenyl)-2-(5,6-diethoxy-7-fluoro-1-imino-1,3-dihydro-isoindol-2-yl)-ethanone hydrobromide]	26	44	50	–	–
CCNC(=O)Oc1c(OCC)cc(C(=O)CN2Cc3cc(OCC)c(OCC)c(F)c3C2=N)cc1C(C)(C)C [Example 29, 2-tert-butyl-4-[2-(5,6-diethoxy-7-fluoro-1-imino-1,3-dihydro-isoindol-2-yl)-acetyl]-6-ethoxy-phenyl ethylcarbamate hydrobromide]	–	–	70	76	52
CCOc1cc2c(c(F)c1OCC)C(=N)N(CC(=O)c1cc(N3CCC(=O)CC3)c(OC)c(C(C)(C)C)c1)C2 [Example 94, 1-{3-tert-Butyl-5-[2-(5,6-diethoxy-7-fluoro-1-imino-1,3-dihydro-isoindol-2-yl)-acetyl]-2-methoxy-phenyl}-piperidin-4-one hydrobromide]	13	29	44	–	–
CCOc1cc2c(cc1C(=O)NC)C(=N)N(CC(=O)c1cc(OCC)c(O)c(C(C)(C)C)c1)C2 [Example 109, 2-[2-(3-tert-Butyl-5-ethoxy-4-hydroxy-phenyl)-2-oxo-ethyl]-6-ethoxy-3-imino-2,3-dihydro-1H-isoindole-5-carboxylic acid methylamide hydrobromide]	30	12	42	–	–
CCOc1cc2c(c(F)c1OCC)C(=N)N(CC(=O)c1cc(N3CCNCC3)c(OC)c(C(C)(C)C)c1)C2 [Example 112, 1-(3-tert-Butyl-4-methoxy-5-piperazin-1-yl-phenyl)-2-(5,6-diethoxy-7-fluoro-1-imino-1,3-dihydro-isoindol-2-yl)-ethanone dihydrochloride]	30	28	52	–	–
CCOc1cc2c(c(F)c1OCC)C(=N)N(CC(=O)c1cc(N3CCN(CC(=O)O)CC3)c(OC)c(C(C)(C)C)c1)C2 [Example 127, (4-{3-tert-Butyl-5-[2-(5,6-diethoxy-7-fluoro-1-imino-1,3-dihydro-isoindol-2-yl)-acetyl]-2-methoxy-phenyl}-piperazin-1-yl)-acetic acid dihydrochloride]	17	21	150	–	–
